Experimental data: US20040242508A1, “Novel hydroxyalkyl indolocarbazole derivatives, preparation method and pharmaceutical compositions containing the same” (priority 2001, published 2004)
pIC50: −log10 of the molar value.

Columns and labels:
[1] = test system: CDK1/cyclin B; assay: Inhibitory activity in respect of CDK-1; format: biochemical, starfish (Marthasterias glacialis); conditions: histone H1 substrate, 15 μM ATP, 10 minutes at 30° C.
Method: The enzyme was purified from a starfish (Marthasterias glacialis) oocyte homogenate at M phase as described in Eur. J. Biochem, 1997, 243, 527-536 and J. Biol. Chem.,1999, 274, 11977-11986. The reaction mixture comprises, in a volume of 30 μl: 1 mg/ml of histone H1 as substrate, 15 μM [γ-^32P]ATP (3000 Ci/mmol, 1 mCi/ml), 15 mM MgCl2, 60 mM β-glycerophosphate, 15 mM p-nitrophenylphosphate, 25 mM MOPS pH=7.2, 5 mM EGTA, 1 mM DTT, 1 mM sodium vanadate, and the inhibitor at a given concentration. After 10 minutes' incubation at 30° C., 25 μl of the reaction mixture are removed and treated as described above in the GSK-3 protocol. The IC50 values are estimated from dose-response curves.

[2] = biological target: T1, Glycogen synthase kinase 3 (Rattus norvegicus, UniProt P18266); assay: Inhibitory activity in respect of GSK-3; format: biochemical; conditions: GS-1 peptide substrate, 15 μM ATP, 30 minutes at 30° C.
T1 construct: made in house; host or cells: Sf9 insect cells
Method: Glycogen synthase kinase 3 was purified starting from Sf9 cells transfected as described in Eur. J. Biochem., 1992, 305-311. The reaction mixture comprises, in a final volume of 30 μl: 1 mg/ml of BSA, 10 mM DTT, 6.7 μM GS-1 peptide as substrate, 15 μM [γ-^32P]ATP (3000 Ci/mmol, 1 mCi/ml), 10 mM MgCl2, 1 mM EGTA, 25mM Tris-HCl pH=7.5, 50 μg/ml of heparin, and the inhibitor at a given concentration. After 30 minutes at 30° C., 25 μl of the mixture are deposited on Whatman® P81 phosphocellulose paper filters, which are then washed 5 times with 10 ml of phosphoric acid (10 ml/l). The radioactivity of the filters is then counted in the presence of 1 ml of scintillation liquid. The IC50 values are estimated from dose-response curves.

[3] = biological target: CDK5/p25 complex (Homo sapiens, UniProt Q00535); assay: Inhibitory activity in respect of CDK5; format: biochemical; conditions: CDK5 activated by p25 (1/1 mixture), measured as for CDK1/cyclin B
Method: CDK5 was expressed in E. coli in the form of a GST (Glutathione-S-transferase) fusion protein and purified on a glutathione-agarose affinity column. CDK5 is then activated by p25 (1/1 mixture), prepared in the same manner. The enzymatic activity of the CDK5/p25 complex is measured as described above for CDK1/cyclin B. The IC50 values are estimated from dose-response curves.

Chain of CDK5/p25 complex (Q00535 whole entry, species assumed, the tested form may be a part): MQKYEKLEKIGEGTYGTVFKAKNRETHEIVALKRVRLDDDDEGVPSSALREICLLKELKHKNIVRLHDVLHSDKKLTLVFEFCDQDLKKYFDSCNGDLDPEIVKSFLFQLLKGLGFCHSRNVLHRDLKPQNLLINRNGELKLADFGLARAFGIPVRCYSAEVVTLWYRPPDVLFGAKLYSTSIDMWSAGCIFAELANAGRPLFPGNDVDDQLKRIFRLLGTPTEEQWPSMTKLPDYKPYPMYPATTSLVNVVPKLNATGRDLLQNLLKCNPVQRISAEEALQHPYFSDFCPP
Chain of CDK5/p25 complex (Q15078 99-307 partner limits assumed, species assumed): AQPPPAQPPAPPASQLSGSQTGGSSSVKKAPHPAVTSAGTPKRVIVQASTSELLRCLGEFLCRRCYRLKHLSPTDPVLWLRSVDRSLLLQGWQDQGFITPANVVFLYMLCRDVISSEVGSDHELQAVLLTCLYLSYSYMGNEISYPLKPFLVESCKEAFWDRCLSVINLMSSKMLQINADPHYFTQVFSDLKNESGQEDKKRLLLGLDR
T1 sequence (P18266 whole entry): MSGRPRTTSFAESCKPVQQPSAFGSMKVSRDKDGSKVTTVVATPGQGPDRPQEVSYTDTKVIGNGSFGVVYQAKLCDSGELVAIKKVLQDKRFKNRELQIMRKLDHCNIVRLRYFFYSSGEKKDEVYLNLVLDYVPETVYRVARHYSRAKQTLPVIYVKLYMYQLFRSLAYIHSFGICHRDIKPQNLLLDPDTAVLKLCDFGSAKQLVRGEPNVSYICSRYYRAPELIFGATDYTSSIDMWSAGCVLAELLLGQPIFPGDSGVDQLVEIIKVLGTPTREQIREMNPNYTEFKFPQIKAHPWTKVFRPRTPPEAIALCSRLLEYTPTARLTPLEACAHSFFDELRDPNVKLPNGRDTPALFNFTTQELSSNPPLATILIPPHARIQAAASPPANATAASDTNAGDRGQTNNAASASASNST

pIC50 [1]: < 5.30 | pIC50 [2]: 7.52 | pIC50 [3]: < 5.30
SMILES: CO[C@H]1[C@H](O)[C@@H](O)[C@H](n2c3ccc(CO)cc3c3c4c(c5c6cc(CO)ccc6[nH]c5c32)C(=O)NC4=O)O[C@@H]1CO [Example 1, 3,9-bis(hydroxymethyl)-1 2-(4-O-methyl-β-D-glucopyranosyl)-12,13-dihydro-5H-indolo[2,3-a]pyrrolo[3,4-c]carbazole-5,7(6H)-dione]
